Results on 17 compounds are retold here after patent US20120245137A1 (Zalicus Pharmaceuticals Ltd., priority 2009, published 2012).

pIC50: −log10 of the molar value. Read-outs that look alike come from different tables or passages of the source.

Common to all, as to type: cell-based
Experiment [1] concerns the target human α1H T-type channels (Homo sapiens, UniProt O95180). As to the kind of experiment: T-type calcium channel block, whole cell patch clamp, α1H. The settings on record: HEK cells stably expressing human α1H; mainly non-inactivated protocol; values above 10,000 nM represented as 10000. The gist of the method:
(§1)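 Blockade of T-type current was measured in human α1G- or α1H-expressing HEK 293 cells using whole-cell recording with ~5 MΩ pipettes. Test compounds, dissolved in external solution containing 0.1-0.01% DMSO, were applied close to the cell, and block was examined under both non-inactivating and inactivating voltage protocols.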
(The patch-clamp technique gives a direct electrical read-out from membranes.)

Experiment [2] deals with human α1G T-type channels (Homo sapiens, UniProt O43497). The experiment in a line: T-type calcium channel block, whole cell patch clamp, α1G. The settings on record: HEK cells stably expressing human α1G; mainly non-inactivated protocol; values above 10,000 nM represented as 10000. The gist of the method: as §1
For experiment [3], the target named is N-type calcium channel subunits (α1B, α2δ, and β3a) (Homo sapiens, UniProt Q00975). The experiment in a line: Block of Cav2.2 channel, whole cell voltage clamp, manual and PatchXpress. The settings on record: Table 5; table follows Assay Example 3 (whole cell voltage clamp / PatchXpress); assay not given. The method, boiled down:
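Percent block taken as current amplitude ratio with versus without compound, applied in rising doses; IC50 fitted where one cell received multiple doses. Protocol: 50 ms pulses to +20 mV at 0.067 Hz from […] or −90 mV holding; P/n leak subtraction, no junction-potential correction; manual and PatchXpress recordings.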

In a further experiment the target is Human Cav 2.2 channels (Homo sapiens, UniProt Q00975). As to the kind of experiment: Fluorescent assay for CaV2.2 channels using potassium depolarization (VIPR/FLIPR). The settings on record: FLIPR data. The gist of the method:
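HEK293 cells stably expressing human Cav2.2 with α2δ and β subunits plus Kir2.3 were loaded with fluo-4 and incubated 30 min at 25 °C with compound in 4, 12, 25 or 30 mM potassium buffer. Channels were opened with 70 mM potassium (final) and calcium influx was read by fluorescence (Ex 480/Em 535 nm).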

Experiment [4] concerns the target T-type calcium channel (Homo sapiens, UniProt O43497). The experiment in a line: T-type channel blocking, FLIPR data (Table 6). The settings on record: CAv3.1. An excerpt:
(§2) Another method, high-throughput spectrophotometric assay, utilizes loading of the cell lines with a fluorescent dye sensitive to intracellular calcium concentration and subsequent examination of the effects of compounds on the ability of depolarization by potassium chloride or other means to alter intracellular calcium levels.

Experiment [5] has as its target T-type calcium channel (Homo sapiens, UniProt O95180). The experiment in a line: T-type channel blocking, FLIPR data (Table 6).
Excerpt: as §2

The target in the next experiment is CAv1.2 (Homo sapiens, UniProt Q13936). As to the kind of experiment: FLIPR data, CAv1.2 channel blocking (Table 6). To be noted: for CAv1.2 IC50 Ratio closed/inact.: ratio closed/inactivated IC50.
Where [6] appears, read: closed state, read-out: CAv2.2 IC50 Closed.
Setting [7] is: inactivated state, read-out: CAv2.2 IC50 Inact.
Where [8] appears, read: CAv3.2, closed state, read-out: CAv3.2 IC50 Closed.
Where [9] appears, read: CAv3.2, inactivated state, read-out: CAv3.2 IC50 Inact.
Where [10] appears, read: CAv3.2, ratio closed/inactivated IC50.
Where [11] appears, read: closed state, read-out: CAv1.2 IC50 Closed.
The mark [12] stands for this setting: inactivated state, read-out: CAv1.2 IC50 Inact.

As a reminder, the pIC50 is the IC50 on a negative log10 scale, so that one unit is a factor of ten. One may read the IC50 as the concentration needed to halve the response being measured.

Sequence of Human Cav 2.2 channels (Q00975 whole entry): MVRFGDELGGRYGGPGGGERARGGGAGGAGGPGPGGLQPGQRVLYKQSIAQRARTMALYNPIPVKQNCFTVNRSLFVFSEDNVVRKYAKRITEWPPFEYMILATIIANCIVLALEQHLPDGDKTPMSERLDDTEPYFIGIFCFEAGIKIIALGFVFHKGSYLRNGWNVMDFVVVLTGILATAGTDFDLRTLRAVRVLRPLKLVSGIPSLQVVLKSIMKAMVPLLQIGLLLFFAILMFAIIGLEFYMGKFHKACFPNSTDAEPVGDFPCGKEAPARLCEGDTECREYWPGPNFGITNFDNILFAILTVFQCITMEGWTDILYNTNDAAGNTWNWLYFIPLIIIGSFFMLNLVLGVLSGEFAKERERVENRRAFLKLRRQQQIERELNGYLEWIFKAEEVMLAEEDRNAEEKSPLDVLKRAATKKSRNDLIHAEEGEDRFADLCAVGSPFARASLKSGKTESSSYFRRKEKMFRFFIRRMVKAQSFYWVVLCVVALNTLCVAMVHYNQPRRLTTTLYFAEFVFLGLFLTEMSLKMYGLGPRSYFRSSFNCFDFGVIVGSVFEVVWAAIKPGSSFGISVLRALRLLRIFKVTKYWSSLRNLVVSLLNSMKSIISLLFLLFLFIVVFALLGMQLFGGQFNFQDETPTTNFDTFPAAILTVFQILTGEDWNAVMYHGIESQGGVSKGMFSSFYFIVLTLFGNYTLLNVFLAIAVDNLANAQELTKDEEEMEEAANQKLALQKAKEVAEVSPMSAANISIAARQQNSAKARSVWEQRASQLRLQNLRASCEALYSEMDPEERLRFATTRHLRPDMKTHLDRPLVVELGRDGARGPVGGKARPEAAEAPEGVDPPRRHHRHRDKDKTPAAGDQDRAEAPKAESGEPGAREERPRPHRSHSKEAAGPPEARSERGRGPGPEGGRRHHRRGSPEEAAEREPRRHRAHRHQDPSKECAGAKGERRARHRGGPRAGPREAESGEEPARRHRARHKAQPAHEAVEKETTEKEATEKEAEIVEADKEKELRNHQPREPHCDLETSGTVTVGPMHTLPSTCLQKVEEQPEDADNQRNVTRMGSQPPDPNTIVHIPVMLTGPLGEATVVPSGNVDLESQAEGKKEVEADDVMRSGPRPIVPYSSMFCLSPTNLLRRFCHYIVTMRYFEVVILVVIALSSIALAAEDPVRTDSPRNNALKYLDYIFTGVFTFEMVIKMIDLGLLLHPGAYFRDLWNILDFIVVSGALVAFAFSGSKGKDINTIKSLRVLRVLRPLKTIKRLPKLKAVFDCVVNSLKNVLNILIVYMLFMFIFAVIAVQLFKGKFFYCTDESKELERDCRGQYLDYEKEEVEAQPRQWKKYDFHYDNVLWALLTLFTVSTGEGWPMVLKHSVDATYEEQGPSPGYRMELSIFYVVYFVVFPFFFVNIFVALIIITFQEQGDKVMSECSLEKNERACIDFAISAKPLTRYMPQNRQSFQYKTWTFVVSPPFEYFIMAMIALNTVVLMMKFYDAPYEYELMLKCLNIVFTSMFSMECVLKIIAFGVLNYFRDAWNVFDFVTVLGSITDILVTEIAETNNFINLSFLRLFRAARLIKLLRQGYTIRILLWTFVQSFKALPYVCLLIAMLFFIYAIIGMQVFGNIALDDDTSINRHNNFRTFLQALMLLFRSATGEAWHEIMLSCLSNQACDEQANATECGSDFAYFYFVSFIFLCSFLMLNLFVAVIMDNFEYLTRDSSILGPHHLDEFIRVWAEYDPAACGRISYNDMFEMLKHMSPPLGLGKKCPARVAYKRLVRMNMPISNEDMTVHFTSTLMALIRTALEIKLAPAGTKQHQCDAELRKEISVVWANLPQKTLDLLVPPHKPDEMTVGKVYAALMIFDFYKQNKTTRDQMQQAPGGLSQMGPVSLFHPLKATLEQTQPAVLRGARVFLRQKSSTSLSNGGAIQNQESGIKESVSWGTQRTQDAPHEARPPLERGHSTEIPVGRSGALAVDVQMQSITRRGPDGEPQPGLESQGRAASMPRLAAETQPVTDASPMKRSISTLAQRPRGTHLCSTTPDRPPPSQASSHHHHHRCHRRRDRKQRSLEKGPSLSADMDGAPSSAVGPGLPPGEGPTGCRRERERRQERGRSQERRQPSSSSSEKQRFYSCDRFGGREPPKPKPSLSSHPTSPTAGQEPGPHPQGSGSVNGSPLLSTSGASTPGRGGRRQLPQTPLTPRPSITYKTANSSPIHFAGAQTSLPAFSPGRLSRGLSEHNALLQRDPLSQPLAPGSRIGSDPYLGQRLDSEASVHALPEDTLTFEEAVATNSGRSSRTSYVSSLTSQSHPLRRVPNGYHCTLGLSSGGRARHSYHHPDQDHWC
Sequence of Human Cav 2.2 channels (P54289 25-1103 partner): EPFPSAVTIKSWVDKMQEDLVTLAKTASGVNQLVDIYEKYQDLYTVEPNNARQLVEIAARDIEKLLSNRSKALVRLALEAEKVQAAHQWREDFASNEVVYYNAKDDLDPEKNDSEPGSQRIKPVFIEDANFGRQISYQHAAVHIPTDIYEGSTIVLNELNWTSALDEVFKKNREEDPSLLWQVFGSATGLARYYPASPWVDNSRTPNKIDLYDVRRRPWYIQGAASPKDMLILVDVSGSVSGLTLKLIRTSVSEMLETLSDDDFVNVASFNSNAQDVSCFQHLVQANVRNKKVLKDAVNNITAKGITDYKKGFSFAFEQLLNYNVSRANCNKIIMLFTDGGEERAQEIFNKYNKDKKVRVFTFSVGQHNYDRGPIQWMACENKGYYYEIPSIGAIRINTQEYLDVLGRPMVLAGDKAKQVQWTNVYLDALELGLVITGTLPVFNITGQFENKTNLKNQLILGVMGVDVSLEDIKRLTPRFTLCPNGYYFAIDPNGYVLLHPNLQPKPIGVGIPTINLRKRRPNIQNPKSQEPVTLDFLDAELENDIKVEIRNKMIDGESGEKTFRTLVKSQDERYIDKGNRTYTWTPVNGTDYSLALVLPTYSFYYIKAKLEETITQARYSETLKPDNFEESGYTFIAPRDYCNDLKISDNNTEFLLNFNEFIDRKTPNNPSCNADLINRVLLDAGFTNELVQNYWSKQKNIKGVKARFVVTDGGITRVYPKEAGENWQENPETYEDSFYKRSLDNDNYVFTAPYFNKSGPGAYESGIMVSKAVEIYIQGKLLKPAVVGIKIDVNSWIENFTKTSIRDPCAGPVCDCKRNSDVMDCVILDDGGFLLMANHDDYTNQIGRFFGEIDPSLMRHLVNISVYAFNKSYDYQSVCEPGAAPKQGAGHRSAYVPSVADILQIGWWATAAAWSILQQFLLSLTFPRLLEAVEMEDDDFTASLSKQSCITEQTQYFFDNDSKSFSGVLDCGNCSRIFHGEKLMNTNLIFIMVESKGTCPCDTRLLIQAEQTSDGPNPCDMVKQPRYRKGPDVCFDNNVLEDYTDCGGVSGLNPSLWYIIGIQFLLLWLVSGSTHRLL
Sequence of Human Cav 2.2 channels (P54284 whole entry partner): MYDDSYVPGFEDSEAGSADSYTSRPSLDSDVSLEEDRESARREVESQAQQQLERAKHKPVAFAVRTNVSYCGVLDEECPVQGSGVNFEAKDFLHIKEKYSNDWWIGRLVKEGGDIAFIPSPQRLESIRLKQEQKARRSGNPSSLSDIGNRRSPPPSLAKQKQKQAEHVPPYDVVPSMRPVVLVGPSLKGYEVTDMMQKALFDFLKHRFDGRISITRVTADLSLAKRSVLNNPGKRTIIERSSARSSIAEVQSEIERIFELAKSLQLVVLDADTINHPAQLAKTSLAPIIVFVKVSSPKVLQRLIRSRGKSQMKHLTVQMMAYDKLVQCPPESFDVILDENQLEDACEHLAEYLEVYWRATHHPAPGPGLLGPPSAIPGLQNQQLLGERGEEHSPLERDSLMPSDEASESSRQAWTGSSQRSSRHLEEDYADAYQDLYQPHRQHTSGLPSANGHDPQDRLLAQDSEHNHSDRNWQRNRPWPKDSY
Sequence of N-type calcium channel subunits (α1B, α2δ, and β3a) (Q00975 whole entry): as the sequence (Q00975 whole entry) above
Sequence of N-type calcium channel subunits (α1B, α2δ, and β3a) (P54289 25-1103 partner): as the sequence (P54289 25-1103 partner) above
Sequence of N-type calcium channel subunits (α1B, α2δ, and β3a) (P54284 whole entry partner): as the sequence (P54284 whole entry partner) above

Take `O=C(N[C@H]1C[C@H](S(=O)(=O)c2cccc(C(F)(F)F)c2)C1)c1ccc(Cl)c(F)c1` [Compound 429, 4-chloro-3-fluoro-N-((1S,3S)-3-(3-(trifluoromethyl)phenylsulfonyl)cyclobutyl)benzamide]: the pIC50 in experiment [1] is 5.08; in experiment [2], < 5.00. Also, the IC50 in experiment [3] is 770 nM.
In the same order, the values of `O=C(CN[C@H]1C[C@@H](S(=O)(=O)c2cccc(C(F)(F)F)c2)C1)NC1CCC(F)(F)CC1` [Compound 431, N-(4,4-difluorocyclohexyl)-2-((1S,3S)-3-(3-(trifluoromethyl)phenylsulfonyl)cyclobutylamino) acetamide] are 6.62, 6.04 and 1840 nM.
In the same order, the values of `CC(C)S(=O)(=O)c1cc(C(F)(F)F)cnc1C(=O)N[C@H]1C[C@H](S(=O)(=O)c2cccc(C(F)(F)F)c2)C1` [Compound 432, 3-(isopropylsulfonyl)-5-(trifluoromethyl)-N-((1R,3R)-3-(3-(trifluoromethyl)phenylsulfonyl)cyclobutyl) picolinamide] are 6.48, 5.89 and 810 nM.
On the same counts, the results for `CC([C@H]1C[C@H](NC(=O)c2ccc(F)c(Cl)c2)C1)S(=O)(=O)c1cccc(C(F)(F)F)c1` (stereo partly drawn) [Compound 434, 3-chloro-4-fluoro-N-((1R,3R)-3-( (R)-1-(3-(trifluoromethyl)phenylsulfonyl)ethyl)cyclobutyl)benzamide] are 6.17, 5.95 and 210 nM.
For `O=C(NC[C@H]1C[C@H](S(=O)(=O)c2cccc(C(F)(F)F)c2)C1)c1ccc(C(F)(F)F)nc1` [Compound 571], the pIC50 on Human Cav 2.2 channels (setting [6]) was 5.00; on Human Cav 2.2 channels (setting [7]) it was 6.38; on T-type calcium channel [4], ≤ 5.00; on T-type calcium channel [5] (setting [8]), ≤ 5.00; on T-type calcium channel [5] (setting [9]), 5.00; at CAv1.2 (setting [11]), ≤ 5.00. Moreover, the pIC50 at CAv1.2 (setting [12]) is ≤ 5.00. The “CAv2.2 IC50 Ratio closed/inact.” value at Human Cav 2.2 channels (ratio closed/inactivated IC50) is 23.8. In addition, the “CAv3.2 IC50 Ratio closed/inact.” value at T-type calcium channel [5] (setting [10]) is listed as 1.
`O=C(NC[C@H]1C[C@H](S(=O)(=O)c2cccc(C(F)(F)F)c2)C1)c1ccc(C(F)(F)F)cc1` [Compound 572]: the pIC50 was 5.45 at Human Cav 2.2 channels (setting [6]); 6.57 on Human Cav 2.2 channels (setting [7]); 5.09 at T-type calcium channel [4]; 5.59 on T-type calcium channel [5] (setting [8]); 5.77 on T-type calcium channel [5] (setting [9]); 5.13 at CAv1.2 (setting [11]). Moreover, on CAv1.2 (setting [12]), the pIC50 was 5.52. Further, at Human Cav 2.2 channels (ratio closed/inactivated IC50), the “CAv2.2 IC50 Ratio closed/inact.” value worked out at 13.1. Besides, the “CAv3.2 IC50 Ratio closed/inact.” value on T-type calcium channel [5] (setting [10]) is given as 1.5. The “CAv1.2 IC50 Ratio closed/inact.” value on CAv1.2 is 2.4.
Consider `CC(C)([C@H]1C[C@@H](NC(=O)c2ccc(C(F)(F)F)cn2)C1)S(=O)(=O)c1cccc(C(F)(F)F)c1` [Compound 575], for which the pIC50 at Human Cav 2.2 channels (setting [6]) was 5.49; at Human Cav 2.2 channels (setting [7]), 6.55; on T-type calcium channel [4], ≤ 5.00; at T-type calcium channel [5] (setting [8]), 5.24; at T-type calcium channel [5] (setting [9]), 5.35; on CAv1.2 (setting [11]), 5.12. Also, at CAv1.2 (setting [12]), the pIC50 is 5.27. Moreover, at Human Cav 2.2 channels (ratio closed/inactivated IC50), the “CAv2.2 IC50 Ratio closed/inact.” value turned out to be 11.5. The “CAv3.2 IC50 Ratio closed/inact.” value at T-type calcium channel [5] (setting [10]) is 1.3. Moreover, the “CAv1.2 IC50 Ratio closed/inact.” value at CAv1.2 turned out to be 1.4.
As for `CC(C)([C@H]1C[C@@H](NC(=O)c2ccc(C(F)(F)F)nc2)C1)S(=O)(=O)c1cccc(C(F)(F)F)c1` [Compound 576], the pIC50 on Human Cav 2.2 channels (setting [6]) was 5.07; at Human Cav 2.2 channels (setting [7]) it was 6.36; on T-type calcium channel [4], ≤ 5.00; at T-type calcium channel [5] (setting [8]) it was ≤ 5.00; on T-type calcium channel [5] (setting [9]) it was 5.00; on CAv1.2 (setting [11]), ≤ 5.00. In addition, the pIC50 on CAv1.2 (setting [12]) was 5.02. For the same compound, the “CAv2.2 IC50 Ratio closed/inact.” value on Human Cav 2.2 channels (ratio closed/inactivated IC50) was found to be 19.5. Moreover, at T-type calcium channel [5] (setting [10]), the “CAv3.2 IC50 Ratio closed/inact.” value was determined as 1. Further, on CAv1.2, the “CAv1.2 IC50 Ratio closed/inact.” value is listed as 1.
With `CC(C)([C@H]1C[C@@H](NC(=O)c2ccc(Cl)cn2)C1)S(=O)(=O)c1cccc(C(F)(F)F)c1` [Compound 578], the pIC50 on Human Cav 2.2 channels (setting [6]) was 5.46; on Human Cav 2.2 channels (setting [7]) it was 6.34; on T-type calcium channel [4] it was ≤ 5.00; at T-type calcium channel [5] (setting [8]) it was 5.11; at T-type calcium channel [5] (setting [9]), 5.28; on CAv1.2 (setting [11]), 5.04. Moreover, the pIC50 at CAv1.2 (setting [12]) is 5.08. Also, at Human Cav 2.2 channels (ratio closed/inactivated IC50), the “CAv2.2 IC50 Ratio closed/inact.” value stood at 7.5. In addition, the “CAv3.2 IC50 Ratio closed/inact.” value on T-type calcium channel [5] (setting [10]) is listed as 1.5. Besides, the “CAv1.2 IC50 Ratio closed/inact.” value at CAv1.2 turned out to be 1.1.
As for `CC(C)([C@H]1C[C@@H](NC(=O)c2cnc(C(F)(F)F)nc2)C1)S(=O)(=O)c1cccc(C(F)(F)F)c1` [Compound 579], the pIC50 at Human Cav 2.2 channels (setting [6]) was 5.00; at Human Cav 2.2 channels (setting [7]), 6.18; on T-type calcium channel [4] it was ≤ 5.00; at T-type calcium channel [5] (setting [8]), ≤ 5.00; at T-type calcium channel [5] (setting [9]), 5.00; at CAv1.2 (setting [11]), ≤ 5.00. The pIC50 at CAv1.2 (setting [12]) was 5.00. For the same compound, the “CAv2.2 IC50 Ratio closed/inact.” value on Human Cav 2.2 channels (ratio closed/inactivated IC50) was found to be 15.2. Also, at T-type calcium channel [5] (setting [10]), the “CAv3.2 IC50 Ratio closed/inact.” value was 1. On CAv1.2, the “CAv1.2 IC50 Ratio closed/inact.” value is on record as 1.
For the compound `CC(C)([C@H]1C[C@@H](NC(=O)c2ncc(C(F)(F)F)cc2S(C)(=O)=O)C1)S(=O)(=O)c1cc(F)cc(C(F)(F)F)c1` [Compound 584], the pIC50 is 5.00 at Human Cav 2.2 channels (setting [6]); 5.77 on Human Cav 2.2 channels (setting [7]); ≤ 5.00 at T-type calcium channel [4]; ≤ 5.00 on CAv1.2 (setting [11]); ≤ 5.00 at CAv1.2 (setting [12]). Further, on Human Cav 2.2 channels (ratio closed/inactivated IC50), the “CAv2.2 IC50 Ratio closed/inact.” value is recorded as 5.9.
Consider `CC(C)([C@H]1C[C@H](NC(=O)c2ncc(C(F)(F)F)cc2S(C)(=O)=O)C1)S(=O)(=O)c1cc(F)cc(C(F)(F)F)c1` [Compound 591], for which the negative logarithm of the IC50 (pIC50) at Human Cav 2.2 channels (setting [6]) is 5.00; at Human Cav 2.2 channels (setting [7]), 5.94; on T-type calcium channel [4], ≤ 5.00; at CAv1.2 (setting [12]), ≤ 5.00. Moreover, on Human Cav 2.2 channels (ratio closed/inactivated IC50), the “CAv2.2 IC50 Ratio closed/inact.” value stood at 8.7.
Consider `CC(C)([C@H]1C[C@H](NC(=O)c2cc(C(F)(F)F)n[nH]2)C1)S(=O)(=O)c1cc(F)cc(C(F)(F)F)c1` [Compound 594], for which the pIC50 at Human Cav 2.2 channels (setting [6]) is 5.22; at Human Cav 2.2 channels (setting [7]), 6.28; at T-type calcium channel [4], ≤ 5.00; on T-type calcium channel [5] (setting [8]), 5.03; at T-type calcium channel [5] (setting [9]), 5.63. In addition, the “CAv2.2 IC50 Ratio closed/inact.” value on Human Cav 2.2 channels (ratio closed/inactivated IC50) is recorded as 11.7.
Consider `N[C@H]1CCCCC1C(=O)NC[C@H]1C[C@H](S(=O)(=O)c2cc(F)cc(C(F)(F)F)c2)C1` (stereo partly drawn) [Compound 711], for which the pIC50 on Human Cav 2.2 channels (setting [6]) is 5.00; on Human Cav 2.2 channels (setting [7]), 5.29; on T-type calcium channel [4] it was ≤ 5.00; on T-type calcium channel [5] (setting [9]), 5.00. Besides, at Human Cav 2.2 channels (ratio closed/inactivated IC50), the “CAv2.2 IC50 Ratio closed/inact.” value came out at 1.9.
Take `NC1(CC(=O)N2CC(CS(=O)(=O)c3cc(F)cc(C(F)(F)F)c3)C2)CCCCC1` [Compound 749]: the pIC50 is ≤ 5.00 at Human Cav 2.2 channels (setting [7]), ≤ 5.00 on T-type calcium channel [4], ≤ 5.00 at T-type calcium channel [5] (setting [8]) and 5.00 at T-type calcium channel [5] (setting [9]). Besides, at T-type calcium channel [5] (CAv3.2, ratio closed/inact.), the “CAv3.2 IC50 Ratio closed/inact.” value is on record as 1.
Take `CC(C)([C@H]1C[C@@H](CNc2ccc(Cl)c(F)c2)C1)S(=O)(=O)c1cccc(C(F)(F)F)c1` [Compound 754]: the pIC50 at Human Cav 2.2 channels (setting [7]) is 5.14; at T-type calcium channel [4] it was ≤ 5.00; at T-type calcium channel [5] (setting [9]), 5.00. For the same compound, the “CAv2.2 IC50 Ratio closed/inact.” value on Human Cav 2.2 channels (ratio closed/inact.) came to 1.4.
Take “N-tert-butyl-2-((1S,4S)-4-((3- (trifluoromethyl)phenylsulfonyl) methyl)cyclohexylamino)acetamide [Compound 144]”: the pIC50 in experiment [1] is 6.17; in experiment [2], 5.87. Further, in experiment [3], the IC50 came to 1250 nM.
